According to patent publication US20110230472A1, “RING-FUSED AZOLE DERIVATIVE HAVING PI3K-INHIBITING ACTIVITY” (Shionogi & Co., Ltd., priority 2008, published 2011):

Molecular target: PI-3 kinase γ (Homo sapiens, UniProt P48736)
Assay: PI3Kγ inhibitory activity, PI3-kinase HTRF assay (inhibition ratio)
Format: biochemical
Settings: 0.5 h; for inhibition at 10 µM: compound at 10 μmol/L; for inhibition at 50 µM: compound at 50 μmol/L
Experimental: The PI3Kγ inhibitory activity of a compound was evaluated using PI3-kinase HTRF™ assay (Millipore) according to the following procedure:
To each well of a testing plate, 5 μL of a compound solution containing 10% DMSO (200 μmol/L or 40 μmol/L as the concentration of the compound), 5 μL of a substrate solution (40 μmol/L phosphatidylinositol (4,5)-bisphosphate, 20 mmol/L MgCl2, 10 mmol/L DTT), and 5 μL of a enzyme solution (80 μg/mL PI-3 kinase γ, 10 mmol/L MgCl2, 5 mmol/L DTT) were added, and then allowed to stand for 10 minutes.
Then, 5 μL of a reaction solution (40 μmol/L ATP, 10 mmol/L MgCl2, 5 mmol/L DTT) was added thereto. After reacting for 30 minutes at room temperature, 5 μL of a solution containing EDTA and biotinylated phosphatidylinositol (3,4,5)-triphosphate were added to quench the reaction.
5 μL of a detection reagent containing a europium-labeled anti-GST antibody, the GST-tagged PH domain, and allophycocyanin-labeled streptavidin was added thereto. After 18 hours, HTRF (excitation wavelength: 330 nm, measured wavelengths: 620 nm and 665 nm) was measured.
HTRF ratio was defined as the value obtained by dividing the amount of fluorescence obtained at the measured wavelength 665 nm by the amount of fluorescence obtained at 620 nm. The HTRF ratio in the absence of a compound was defined as 100% activity and the HTRF ratio in the absence of PI-3 kinase γ was defined as 0% activity to calculate an inhibition ratio which was defined as the PI3Kγ inhibitory activity of a compound at 50 μmol/L or 10 μmol/L.

PI-3 kinase γ, sequence (P48736 whole entry): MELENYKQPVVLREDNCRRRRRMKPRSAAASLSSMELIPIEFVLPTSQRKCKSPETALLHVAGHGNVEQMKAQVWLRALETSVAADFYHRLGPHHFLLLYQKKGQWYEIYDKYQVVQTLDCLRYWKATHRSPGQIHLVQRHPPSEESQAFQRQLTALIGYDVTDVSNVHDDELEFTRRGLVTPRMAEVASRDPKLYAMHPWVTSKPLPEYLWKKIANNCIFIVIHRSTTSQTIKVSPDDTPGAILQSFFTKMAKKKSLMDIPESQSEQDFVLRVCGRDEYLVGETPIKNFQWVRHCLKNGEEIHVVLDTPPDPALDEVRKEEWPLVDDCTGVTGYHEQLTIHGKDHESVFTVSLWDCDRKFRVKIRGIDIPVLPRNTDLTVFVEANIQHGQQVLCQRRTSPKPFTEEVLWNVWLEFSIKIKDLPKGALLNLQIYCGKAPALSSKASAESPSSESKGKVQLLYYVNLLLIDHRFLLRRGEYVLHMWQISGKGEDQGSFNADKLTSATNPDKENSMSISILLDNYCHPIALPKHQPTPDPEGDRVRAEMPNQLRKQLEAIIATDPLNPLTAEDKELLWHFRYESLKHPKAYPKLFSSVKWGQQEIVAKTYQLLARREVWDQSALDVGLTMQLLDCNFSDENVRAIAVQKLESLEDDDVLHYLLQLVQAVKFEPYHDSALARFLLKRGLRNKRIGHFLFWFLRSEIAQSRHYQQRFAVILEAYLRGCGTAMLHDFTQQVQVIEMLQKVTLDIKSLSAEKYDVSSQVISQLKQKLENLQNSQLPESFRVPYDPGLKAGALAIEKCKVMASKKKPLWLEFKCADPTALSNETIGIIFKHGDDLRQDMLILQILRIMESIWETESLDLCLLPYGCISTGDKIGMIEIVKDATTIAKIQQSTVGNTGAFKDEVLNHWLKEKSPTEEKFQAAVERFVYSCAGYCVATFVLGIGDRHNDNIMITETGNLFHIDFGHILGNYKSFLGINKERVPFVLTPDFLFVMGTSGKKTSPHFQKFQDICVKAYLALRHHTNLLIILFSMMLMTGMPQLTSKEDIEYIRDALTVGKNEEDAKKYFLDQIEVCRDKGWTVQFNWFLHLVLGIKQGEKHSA

| SMILES | inhibition at 10 µM [%] | inhibition at 50 µM [%] |
| --- | --- | --- |
| COc1cc(N2CCc3nc(NC(=O)Nc4ccsc4)sc3C2)nc(OC)n1 [Compound I-297] | 91 |  |
| CC(=O)Nc1cc2n(n1)CCN2c1ccc2c(c1)CCN(C(=O)OC(C)(C)C)C2 [Compound I-301] |  | ≥ 95 |
| COc1cc(N2CCc3nc(NC(=O)Nc4ccccn4)sc3C2)nc(OC)n1 [Compound I-302] | 85 |  |
| COc1cc(N2CCc3nc(NC(=O)N4CCC(=O)N5CCOCC5C4=O)sc3C2)nc(OC)n1 (stereo not shown) [Compound I-304] | 89 |  |
| CC(=O)Nc1cc2n(n1)CCN2c1ccc2c(c1)CCNC2 [Compound I-305] |  | 84 |
| CC(=O)Nc1cc2n(n1)CCN2c1ccc2c(c1)CCCN2C(=O)OC(C)(C)C [Compound I-306] | ≥ 95 |  |
| CCOC(=O)CCCCC(=O)Nc1cc2n(n1)CCN2c1cccc(OC)c1 [Compound I-307] | 86 |  |
| COc1cc(N2CCc3nc(NC(=O)NCCC(=O)N4CCC[C@H]4C(=O)NC(C)(C)C)sc3C2)nc(OC)n1 [Compound I-311] | ≥ 95 |  |
| COc1cc(N2CCc3nc(NC(=O)NCCC(=O)N4CCC[C@H]4C(=O)N4CCCC4)sc3C2)nc(OC)n1 [Compound I-312] | ≥ 95 |  |
| COc1cc(N2CCc3nc(NC(=O)NCCC(=O)N4CCC[C@H]4C(=O)N(C)C(C)C)sc3C2)nc(OC)n1 [Compound I-313] | 89 |  |
| CN1CCc2cc(N3CCn4nc(NC(=O)OCc5ccccc5)cc43)ccc2C1=O [Compound I-314] | 88 |  |
| COc1cccc(N2CCn3nc(NC(=O)CCCCC(=O)O)cc32)c1 [Compound I-315] | ≥ 95 |  |
| Nc1cc2n(n1)CCN2c1ccc2cnccc2c1 [Compound I-316] | 75 |  |
| COc1cccc(N2CCn3nc(NC(=O)c4ccc[nH]4)cc32)c1 [Compound I-320] | ≥ 95 |  |
| COc1cc(N2CCc3nc(NC(=O)Nc4cccc(C(=O)OC(C)(C)C)c4)sc3C2)nc(OC)n1 [Compound I-321] | 95 |  |
| CN1CCc2cc(N3CCn4nc(NC(=O)c5ccccc5)cc43)ccc2C1=O [Compound I-324] | 93 |  |
| CNC(=O)Nc1nc2c(s1)CN(c1cc(OCC3CC3)nc(Cl)n1)CC2 [Compound I-325] |  | 81 |

| SMILES | inhibition at 10 µM [%] | inhibition at 50 µM [%] |
| --- | --- | --- |
| COc1cc(N2CCc3nc(NC(=O)NCCC(=O)N4CCOCC4(C)C)sc3C2)nc(OC)n1 [Compound I-328] | 87 |  |
| COc1cc(N2CCc3nc(NC(=O)NCc4cc(Br)no4)sc3C2)nc(OC)n1 [Compound I-329] | 89 |  |
| CNC(=O)Nc1nc2c(s1)CN(c1cc(Cl)nc(OC)n1)CC2 [Compound I-333] | 88 |  |
| COc1nc(Cl)cc(N2CCc3nc(NC(C)=O)sc3C2)n1 [Compound I-334] | 88 |  |
| CC(=O)Nc1cc2n(n1)CCN2c1ccc2c(c1)CCC(=O)N2 [Compound I-335] | ≥ 95 |  |
| CNC(=O)Nc1cc2n(n1)CCN2c1ccc2c(c1)CCN(C)C2=O [Compound I-336] | 89 |  |
| COc1cc(N2CCc3nc(NC(=O)Cc4ccccc4C(=O)NC(C)(C)C)sc3C2)nc(OC)n1 [Compound I-337] | 82 |  |
| CN1CCc2cc(N3CCn4nc(NC(=O)Cc5ccc(F)cc5)cc43)ccc2C1=O [Compound I-342] | 92 |  |
| CN1CCc2cc(N3CCn4nc(NC(=O)c5ccc(S(C)(=O)=O)s5)cc43)ccc2C1=O [Compound I-344] | 80 |  |
| CN1CCc2cc(N3CCn4nc(NC(=O)c5cc6ccccc6[nH]5)cc43)ccc2C1=O [Compound I-345] | 80 |  |
| CN1CCc2cc(N3CCn4nc(NC(=O)c5ccc6[nH]cnc6c5)cc43)ccc2C1=O [Compound I-349] | ≥ 95 |  |
| CN1CCc2cc(N3CCn4nc(NC(=O)C5CCN(C(=O)OC(C)(C)C)C5)cc43)ccc2C1=O (stereo not shown) [Compound I-350] |  | ≥ 95 |
| CN1CCc2cc(N3CCn4nc(NC(=O)CC5CCN(C(=O)OC(C)(C)C)C5)cc43)ccc2C1=O (stereo not shown) [Compound I-351] |  | ≥ 95 |
| CN1CCc2cc(N3CCn4nc(NC(=O)C(O)c5ccccc5)cc43)ccc2C1=O (stereo not shown) [Compound I-352] |  | 81 |
| CN1CCc2cc(N3CCn4nc(NC(=O)C5CCNC5)cc43)ccc2C1=O (stereo not shown) [Compound I-355] |  | 92 |
| CN1CCc2cc(N3CCn4nc(NC(=O)c5ccncc5)cc43)ccc2C1=O [Compound I-360] | ≥ 95 |  |
| Cc1csc(C(=O)Nc2cc3n(n2)CCN3c2ccc3c(c2)CCN(C)C3=O)c1 [Compound I-361] | 80 |  |
